Test results reported in US20130309695A1, “METHODS OF DIAGNOSING ASTHMA” (UNIVERSITY OF MANITOBA, priority 2010, published 2013).

B1: IL-4: cytokine used to stimulate HASMC (protein, UniProt P05112 25-153, looked up)
Interleukin-4: HKCDITLQEIIKTLNSLTEQKTLCTELTVTDIFAASKNTTEKETFCRAATVLRQFYSHHEKDTRCLGATAQQFHRHKQLIRFLKRLDRNLWGLAGLNSCPVKEANQSTLENFLERLKTIMREKYSKCSS

Legend:
[1] = tested on: TNF-α-mediated PTX3 release from HASMC; assay: Effect of MAPK inhibitors on TNF-α-induced PTX3 release from HASMC (ELISA); type: cell-based, human; details: 10 μM, 1 h pretreatment, then TNF-α 10 ng/ml for 24 h
Method: (§1) Confluent HASMC (passages 2-5) were growth-arrested by FBS deprivation for 48 h in Ham's F-12 medium containing 5 μg/ml human recombinant insulin, 5 μg/ml human transferrin, 5 ng/ml selenium, and antibiotics (100 U/ml penicillin and 100 μg/ml streptomycin). Cells were then stimulated in fresh FBS-free medium containing graded concentration (0.1, 1, 10, and 100 ng/ml) of human TNF-α, IL-4, PTX3 or medium alone. In some experiments, cells were pretreated for 1 h with U-0126 (10 μM), SB-203580 (10 μM), or SP600125 (50 nM) before stimulation for 24 h with TNF-α (10 ng/ml), at 10 ng/ml. Supernatants were collected at 24 and 48 h, centrifuged at 1,200 rpm for 7 min at 4° C. to remove cellular debris, and stored at −80° C. until analysis by ELISA.
(§2) Immunoreactive PTX3 within the supernatants was quantified using ELISA with matched antibodies according to basic laboratory protocols provided by the manufacturer (R&D Systems Inc., Minneapolis, Minn.). PTX3 protein was quantified in reference to serial dilutions of recombinant standards falling within the linear part of the standard curve for each specific PTX3 measured. Each data point represents readings from a minimum of four independent assays wherein each assay was performed in duplicate.
One of the major downstream pathways for TNF-α-induced cell activation is MAPKs, which play an important role in cells for inflammatory response. Growth-arrested HASMC cells were left unstimulated (medium alone) or treated with 10 ng/ml TNF-α for 24 h, with or without pretreatment for 1 h with inhibitors of JNK (SP600125 50 nM), p42/p44 ERK (U-0126, 10 μM) and p38 MAPK (SB-203580, 10 μM).

[2] = tested on: PTX3 mRNA expression in human airway smooth muscle cells (HASMC); assay: PTX3 mRNA expression in cultured HASMC (RT-PCR / real-time RT-PCR); type: cell-based
Method: as §1
Confluent HASMC (passages 2-5) were growth-arrested for 48 h in serum-free medium as described above. Cells were then stimulated in fresh FBS-free medium containing human recombinant TNF-α (10 ng/ml), IL-4, or medium alone for 2, 6, and 24 h. Cells were harvested, and total cellular RNA was extracted using TRIzol® method (Invitrogen Life Technologies, Gaithersburg, Md.). The RNA concentration and purity were assessed with optical density measurements. […] Amplified products were analyzed by DNA gel electrophoresis in 2% agarose and visualized by ethidium bromide staining under ultraviolet illumination. […] The PTX3 level was quantified by scanning densitometry and corrected for GAPDH in the same sample. […]
Total cellular RNA extraction and reverse transcription was performed as described above. […] The amount of extracted DNA was quantified by spectrophotometry and expressed as copy number. […] For real-time quantitative PCR, each reaction contained the following: 1× LightCycler® DNA Master SYBR Green I (Roche), 25 mM MgCl2, 0.5 μM each primer, 0.07 μM TaqStart® Ab (Clontech), and 10 μl (1:10 for PTX3 and 1:80 for GAPDH) of cDNA, in a final volume of 25 μl. […]

PTX3 release from HASMC = assay: PTX3 protein release from HASMC into the supernatant (ELISA); type: cell-based, human; details: growth-arrested HASMC, 24 h, 0.1, 1, 10 ng/ml
Method: Confluent HASMC (passages 2-5) were growth-arrested by FBS deprivation for 48 h in Ham's F-12 medium containing 5 μg/ml human recombinant insulin, 5 μg/ml human transferrin, 5 ng/ml selenium, and antibiotics (100 U/ml penicillin and 100 μg/ml streptomycin). Cells were then stimulated in fresh FBS-free medium containing graded concentration (0.1, 1, 10, and 100 ng/ml) of human TNF-α, IL-4, PTX3 or medium alone. In some experiments, cells were pretreated for 1 h with U-0126 (10 μM), SB-203580 (10 μM), or SP600125 (50 nM) before stimulation for 24 h with TNF-α (10 ng/ml), at 10 ng/ml. […]
as §2
Assessments were made of the effects of dosage and exposure time of TNF-α on HASMC. […] For both experiments, HASMC were stimulated with 0.1, 1, 10 or 100 ng/ml TNF-α, or medium alone for 24 h after which, PTX3 was measured by ELISA.

Molecule	effect on TNF-α-induced PTX3 release [1]	PTX3 release from HASMC (PTX3 release from HASMC)	also measured
N#CC(=C(N)Sc1ccccc1N)C(C#N)=C(N)Sc1ccccc1N [U-0126, 1,4-diamino-2,3-dicyano-1,4-bis(2-aminophenylthio)butadiene]	significant inhibition		effect on TNF-α-induced PTX3 release ([1]; listed as U0126): abrogate
TNF-α		induced the release of PTX3 in a dose-dependent manner	fold increase of PTX3 mRNA compared with unstimulated cells ([2]; 10 ng/mL, 6 h, ratio to GAPDH, mean±SD of three experiments): 30.93±11.25 fold; time of peak PTX3 mRNA response ([2]; 10 ng/ml, stimulated 2, 6 and 24 h, real-time RT-PCR): 6 h
C[S+]([O-])c1ccc(-c2nc(-c3ccncc3)c(-c3ccc(F)cc3)[nH]2)cc1 (centres unmarked) [SB-203580, 4-(4-fluorophenyl)-2-(4-methyl-sulfinylphenyl)-5-(4′-pyridyl)-1H-imidazole]	no effect		
B1		No significant PTX3 release	effect on PTX3 mRNA expression ([2]; 6 h, data not shown): no significant effect
